Our source for the EPSA values is patent US20260022143A1, “Cyclic Peptide Inhibitors of IL-23” (JANSSEN PHARMACEUTICA NV, priority 2022, published 2026).

Where a name gives a salt, the structure may show the parent alone. Starred links: 1 amine or outer side, 2 acyl side, 3 side chain; linkers in the order of their positions; H or OH if unused. Positions of bridges follow the written chain, without caps; N, C: chain ends. Non-standard residues stand in square brackets, D forms with d. Residues, ends and D or L forms follow the SMILES beside them. Groups on a side chain read outwards from the residue. *: point of attachment. Me3N+(CH2)2O(CH2)2O(CH2)2CO = C[N+](C)(C)CCOCCOCCC(=O)*; Trp(7-Me) = Cc1cccc2c(C[C@H](N)C(=O)O)c[nH]c12; γGlu = O=C(O)[C@H](CCC(=O)[*:2])N[*:1]; 2Nal = N[C@@H](Cc1ccc2ccccc2c1)C(=O)O; AEF = NCCOc1ccc(C[C@H](N)C(=O)O)cc1; dNMeY = CN[C@H](Cc1ccc(O)cc1)C(=O)O; 3Pal = N[C@@H](Cc1cccnc1)C(=O)O; Myristoyl = CCCCCCCCCCCCCC(=O)*; d3Pal = N[C@H](Cc1cccnc1)C(=O)O; Lys(Me) = CNCCCC[C@H](N)C(=O)O; Chg = N[C@H](C(=O)O)C1CCCCC1; NMeK = CN[C@@H](CCCCN)C(=O)O; Pen = CC(C)(S)[C@H](N)C(=O)O; αMeK = C[C@](N)(CCCCN)C(=O)O; Thp = NC1(C(=O)O)CCOCC1; X3 = C[N+](C)(C)CCCCC*; AEEA = NCCOCCOCC(=O)O; Tfa = O=C(C(F)(F)F)*; Sar = CNCC(=O)O

The data set is described as follows: Exposed Polar Surface Area (EPSA). The format is physicochemical. The note with it: SFC on Chirex 3014 column; sample 1 mM DMSO stock; read-out: EPSA. In short, it runs like this: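 Compounds, as 1 mM DMSO stock, were injected in duplicate onto an SFC Chirex 3014 column at 35 °C and eluted with a CO2/methanol (20 mM ammonium formate) gradient. EPSA values in Å^2 were derived from retention times using a linear fit to eight calibration standards, reinjected every 20 compounds.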
For `CCCCCCCCCCCCCC(=O)N[C@@H](CCC(=O)NCCOCCOCC(=O)NCCOCCOCC(=O)NCCCC[C@H](NC(=O)C1(NC(=O)[C@H](Cc2ccc3ccccc3c2)NC(=O)[C@H](Cc2ccc(OCCCCC[N+](C)(C)C)cc2)NC(=O)[C@H]2NC(=O)[C@H](CCCCNC(C)=O)NC(=O)[C@H](Cc3c[nH]c4c(C)cccc34)NC(=O)[C@H]([C@@H](C)O)NC(=O)[C@H](CC(=O)N(C)C)NC(=O)[C@@H](NC(=O)CCOCCOCC[N+](C)(C)C)C(C)(C)SSC2(C)C)CCOCC1)C(=O)N[C@@H](CC(N)=O)C(=O)N[C@@H](Cc1cccnc1)C(=O)N(C)[C@@H](CCCCNC(=O)COCCOCCNC(=O)COCCOCCNC(=O)CC[C@H](NC(=O)CCCCCCCCCCCCC)C(=O)O)C(N)=O)C(=O)O` [compound 351, cPEG3aCO-Pen(3)-N(N(Me)2)-T-7MeW-K(Ac)-Pen(3)-TMAPF-2Nal-THP-K(PEG2PEG2gEC14)-N-3Pya-NMeK(PEG2PEG2gEC14)-CONH2] ({Me3N+(CH2)2O(CH2)2O(CH2)2CO}-[Pen]D(NMe2)T[Trp(7-Me)]K(Ac)[Pen]Y(X3)[2Nal][Thp]K([AEEA-AEEA-γGlu-Myristoyl])N[3Pal][NMeK]([AEEA-AEEA-γGlu-Myristoyl])-NH2; disulfide 1-6), the EPSA worked out at 184 A^2.
The same measure for `CC(=O)N(C)CCCC[C@@H]1NC(=O)[C@H](Cc2c[nH]c3c(C)cccc23)NC(=O)[C@H]([C@@H](C)O)NC(=O)[C@H](CC(=O)N(C)C)NC(=O)[C@@H](NC(=O)CCOCCOCC[N+](C)(C)C)C(C)(C)SSC(C)(C)[C@@H](C(=O)N[C@@H](Cc2ccc(OCCCCC[N+](C)(C)C)cc2)C(=O)N[C@@H](Cc2ccc3ccccc3c2)C(=O)N[C@H](C(=O)N[C@@H](CCCCN(C)C(C)=O)C(=O)N[C@@H](CC(N)=O)C(=O)N[C@@H](Cc2cccnc2)C(=O)N(C)CC(=O)N(C)C)C2CCCCC2)NC1=O` [compound 340, cPEG3aCO-Pen(3)-N(N(Me)2)-T-7MeW-K(NMeAc)-Pen(3)-TMAPF-2Nal-Chg-K(NMeAc)-N-3Pya-Sar-CON(Me)2] ({Me3N+(CH2)2O(CH2)2O(CH2)2CO}-[Pen]D(NMe2)T[Trp(7-Me)][Lys(Me)](Ac)[Pen]Y(X3)[2Nal][Chg][Lys(Me)](Ac)N[3Pal][Sar]-NMe2; disulfide 1-6): 155 A^2.
Under `CC(=O)NCCCC[C@@H]1NC(=O)[C@H](Cc2c[nH]c3c(C)cccc23)NC(=O)[C@H]([C@@H](C)O)NC(=O)[C@H](CC(N)=O)NC(=O)[C@@H](NC(=O)C(F)(F)F)C(C)(C)SSC(C)(C)[C@@H](C(=O)N[C@@H](Cc2ccc(OCCN)cc2)C(=O)N[C@@H](Cc2ccc3ccccc3c2)C(=O)NC2(C(=O)N[C@@H](CCC(=O)N(C)C)C(=O)N[C@@H](CC(N)=O)C(=O)N[C@@H](Cc3cccnc3)C(=O)N(C)CC(N)=O)CCOCC2)NC1=O` [compound 72] (Tfa-[Pen]NT[Trp(7-Me)]K(Ac)[Pen][AEF][2Nal][Thp]E(NMe2)N[3Pal][Sar]-NH2; disulfide 1-6 (inferred)) stands 160 A^2; under `CC(=O)NCCCC[C@@H]1NC(=O)[C@H](Cc2c[nH]c3c(C)cccc23)NC(=O)[C@H]([C@@H](C)O)NC(=O)[C@H](CC(N)=O)NC(=O)[C@@H](NC(C)=O)C(C)(C)SSC(C)(C)[C@@H](C(=O)N[C@@H](Cc2ccc(OCCN)cc2)C(=O)N[C@@H](Cc2ccc3ccccc3c2)C(=O)N[C@@](C)(CCCCN)C(=O)N[C@@H](CCCCNC(C)=O)C(=O)N[C@@H](CC(N)=O)C(=O)N[C@H](Cc2cccnc2)C(=O)N(C)[C@H](Cc2ccc(O)cc2)C(N)=O)NC1=O` [compound 32, MeCO-Pen(3)-N-T-7MeW-K(Ac)-Pen(3)-AEF-2Nal-aMeK-K(ac)-N-3pya-NMeDTyr-CONH2] (Ac-[Pen]NT[Trp(7-Me)]K(Ac)[Pen][AEF][2Nal][αMeK]K(Ac)N[d3Pal][dNMeY]-NH2; disulfide 1-6), 166 A^2.
